US5561131A, “Defaunation method” (Mallinckrodt Veterinary, Inc., priority 1991, dated 1996)

How the values were obtained:
[1] = tested on: rumen ciliate protozoa; assay: Protozoal reduction in sheep; type: in vivo; parameters: concentration or dose not given beside the values; conditions: one week after dosing, relative to predosing numbers
Protocol: Defaunation compositions were prepared according to the method of Example 1.
Prior to dosing of the compound, a sample of rumen liquor (200 ml) was withdrawn to establish basal numbers of protozoa.
The sample was collected using a stomach tube, inserted into the rumen via a rumen cannula (fistulated animals) or per esophagus (intact animals). After straining the sample was well mixed using a magnetic stirrer and a 0.5 ml sample was withdrawn and added to 49.5 ml of a crystal violet stain. Protozoa were counted using a microscope and a Hawksley counting chamber.
One week after administering the compound, another rumen liquor sample was collected (as described above) and examined for the presence of protozoa. Where rumen ciliate protozoa were undetectable, a reduction or inhibition value of 100% was recorded. In general, most compounds expressed a strong inhibitory effect on protozoal populations.

[2] = tested on: protozoa; assay: Sheep test: protozoal numbers; type: in vivo
Protocol: (§1) In this trial the effect of defaunation by compounds 27, 30 and 37 (see Table 1) after 1 and 3 weeks were examined using penned sheep.
(§2) The compounds were each administered to two sheep as a single dose at 167 mg/kg body weight. Compositions containing each compound were prepared according to the method of Example 1. Sheep were penned and fed 1000 g/day of a chaffed oaten hay and Lucerne mixture (90/10). Protozoal and bacterial viabilities were monitored along with the feed intake of the sheep according to the methods taught in Examples 2, 3 and 7.

[3] = Sheep test: feed intake; type: in vivo
Protocol: as §1, §2

[4] = tested on: rumen bacteria; assay: Bacterial viability in sheep after administering defaunation compounds; type: in vivo; conditions: gas production one week after dosing vs pre-dosing
Protocol: In order to establish what effect the compounds had on the viability of rumen bacteria, a sample of rumen liquor was collected prior to dosing of the compound. The sample was withdrawn under vacuum using a pre-warmed tube inserted into the rumen through a rumen cannula. The sample was collected in a pre-warmed (39° C.) flask, gassed with carbon dioxide and covered. Two-pre-warmed 30 ml centrifuge tubes were then filled with well mixed rumen liquor and centrifuged at 2000 rpm for 5 minutes. Half the volume of each tube was then poured into another pre-warmed tube without disturbing the sediment. Three lots of 10 ml of this rumen liquor were then pipetted into 15 ml tubes which contained 10 μL of urea solution (40% w/v and 300 μL of glucose solution (50% w/v). The urea and glucose acted as substrate for the bacteria. The tubes were then gassed with carbon dioxide, stoppered and placed in a water bath at 39° C. After 10 minutes a 5 ml glass syringe was secured into the stoppers (through which a hypodermic needle had been inserted) and the gas collected for five hours and recorded.
This bacterial viability measure was then repeated one week after dosing with each of the compounds referred to in Table 1. Defaunation compositions were prepared according to the method of Example 1. The amount of gas produced was then compared with the pre-dosing level. The criterion for classifying post-dosing bacterial viability is shown below:
Poor--reduction in post-dosing gas production relative to pre-dosing levels.
OK--post-dosing gas production the same as pre-dosing levels.
Good--increase in post-dosing gas production relative to pre-dosing levels.

[5] = tested on: rumen bacteria; assay: Sheep test: bacterial gas production; type: in vivo
Protocol: as §1, §2

[6] = tested on: rumen bacteria; assay: In vitro bacterial gas inhibition; type: cell-based; conditions: at the concentration known to kill protozoa
Protocol: Compounds of Table 1 were also tested for toxicity bacteria. This involved removing protozoa from rumen liquor by centrifugation at 2,000 g for 5 minutes and collecting the bacterial rich supernatant. Nitrogen and energy substrate was added to the bacterial preparation which was then dispensed in triplicate 10 ml volumes over the same range of compound concentrations (50, 150, 250 and 500 ppm.) referred to in Example 2. Control tubes were placed after every second compound to enable the inhibition of gas resulting from the compound to be assessed. […] It can be seen that these compounds are selective in their mode of action, in that they are more toxic to protozoa than bacteria.

[7] = Wool growth in defaunated sheep; type: in vivo; conditions: sheep, 167 mg/kg
Protocol: (§3) Seven sheep each were defaunated using a dose rate of 167 mg/kg. Compounds were administered by first mixing with 20 ml of ethanol and then with 200 ml of centrifuged rumen liquor. This solution was then administered via a flexible stomach tube directly into the rumen. The sheep were fed with a ration of 90% oaten chaff and 10% Lucerne chaff at a rate of 1000 g per day. The sheep were maintained in a defaunated state by their isolation from faunated sheep to prevent the possibility of refaunation. The sheep were allowed to adjust for 3 weeks after administering the compound before any wool growth measurements were taken.
(§4) At the start of the wool growth measurement period, a 10 cm square area of wool was removed from both sides of the sheep. After four weeks the same area was reclipped and the wool retained for scouring at the end of the trial.
(§5) The sheep then had protozoa introduced back into their rumen and were allowed to adjust for three weeks. Similarly, during the second four week period, the wool was clipped from the same patch area. The wool harvested during the two four week trial periods was then scoured of wool wax and extraneous material and weighed.

[8] = tested on: rumen ciliate protozoa; assay: In vitro activity of defaunation compounds against rumen ciliate protozoa; type: cell-based; conditions: 39° C., anaerobic, 3 hours, tested at 50, 150, 250 and 500 ppm
Protocol: Compounds of Table 1 were tested for their toxicity against rumen ciliate protozoa by firstly isolating protozoa from rumen liquor collected from faunated animals. The rumen liquor was then centrifuged at 500 g for five minutes and the supernatant discarded. The protozoal-rich sediment was then reconstituted in McDougal's artificial saliva. Residual bacteria were suppressed by using a combination of two antibiotics at low concentration. Nitrogen and energy substrate was optimized for the protozoal preparation. At all times the protozoal preparation was maintained at 39° C. and kept anaerobic.
Sixty milligrams of each the compounds of Table 1 were dissolved in 1.2 ml of dimethyl sulphoxide and dispersed in triplicate to achieve a final concentration of 50, 150, 250 and 500 ppm. Ten milliliters of protozoal preparation was then added to each tube. After every second compound, control tubes were included which contained everything except for compound. The tubes, to which a 5 ml glass syringe was attached, were then incubated for 3 hours in a water bath at 39° C. The production of gas causes the syringe plunger to be displaced.
At the end of the incubation period, the volume of gas produced was recorded and the viability of the protozoa assessed visually using a microscope. The toxicity of the compounds to protozoa was assessed from both the reduction in gas produced relative to the control and by direct observation of the protozoa for movement of cilia.

[9] = Effect of defaunation compounds on feed intake of sheep; type: in vivo; conditions: after dosing vs pre-dosing intake
Protocol: Sheep were allowed a minimum of three weeks to adapt to their ration of 900 g of oaten chaff and 100 g of Lucerne chaff. The pre-dosing level of intake for each animal was established from the mean of five days intake immediately prior to dosing. Any effects of administering the compound on feed intake was then determined by measuring the level of feed intake after dosing.
The criteria of classifying the effect on food intake are shown below.
Poor--greater than 50% reduction in feed intake during the first week after dosing.
Fair--greater than 50% reduction in feed intake on the day following dosing but less then 50% reduction one week after dosing.
OK--transient drop in feed intake which is less than 50% on the day after dosing.
Good--No reduction in feed intake following dosing.

[10] = tested on: protozoa; assay: Wool growth trial: protozoal number; type: in vivo; conditions: sheep, defaunated period, 167 mg/kg
Protocol: as §3, §4, §5

[11] = tested on: mice; assay: Mouse safety assessment; type: in vivo; conditions: oral gavage, 830, 415 and 217 mg/kg, observed for 2 days
Protocol: Compounds of Table 1 chosen for testing in sheep were first tested in mice for signs of toxicity. Because sheep are approximately 5 times more sensitive than mice to compounds dosed orally, the dose rates applied to mice were 5 times greater than the target dose rate of 500 ppm. in rumen liquor (83 mg/kg live weight) used for sheep. Each compound was screened at three different dose levels, high (830 mg/kg), medium (415 mg/kg) and low (217 mg/kg).
252 mg of compound was used for dilution into a high medium and low dose rate. 252 mg of compound was mixed with 3 ml of G1284 solution (4% w/v ethoxylated castor oil and 0.05% w/v simethicone), to form the high dose composition. The medium dose composition was formed by diluting 1.5 ml of the high dose with 1.5 ml of G1284 solution. The low dose composition was formed by diluting 1.5 ml of the medium dose with 1.5 ml of G1284 solution. Before the high dose could be diluted it was first manually ball milled in an effort to produce a fine suspension of the compound.
All mice were weighed before dosing to calculate the appropriate dose rate. The calculation for dose rate was: [formula]
Each mouse was dosed using the Gavage method. With this method the mouse is dosed orally by way of an angled hypodermic needle (18 g) with a smooth spherical end. It is gently placed down the esophagus. All care must be taken not to force the needle and injure the esophagus or dose into the lungs.
Observations were made at 10, 30, 60 and 120 minutes after dosing, then every 1 or 2 hours for the first 6 hours.
Mice were usually observed for 2 days.
Typically, few compounds fell within the poor classification. The majority of compounds tested were either in the fair or good classification.

| Compound | Protozoal Reduction [1] | Protozoal Nos. ([2]; 1 week after 167 mg/kg) | Protozoal Nos. ([2]; 3 weeks after 167 mg/kg) | Protozoal Nos. ([2]; pre-dose (baseline)) | Feed Intake ([3]; 1 week after 167 mg/kg) | Feed Intake ([3]; 3 weeks after 167 mg/kg) | Feed Intake ([3]; pre-dose (baseline)) | Bacterial Viability [4] | Bacterial gas production ([5]; 1 week after 167 mg/kg) | Bacterial gas production ([5]; 3 weeks after 167 mg/kg) | Bacterial gas production ([5]; pre-dose (baseline)) | Bact. Gas Inhibition at the conc. required to kill protozoa [6] | Response To Defaun ([7]; clean wool growth defaunated vs refaunated) | Clean Wool Growth ([7]; defaunated period, 4 weeks, per midside patch) | Conc Required to Kill all Protozoa [8] | Feed Intake [9] | Prot. Number [10] | Mouse Safety Assessment [11] |
| --- | --- | --- | --- | --- | --- | --- | --- | --- | --- | --- | --- | --- | --- | --- | --- | --- | --- | --- |
| Cc1ccc(Nc2nc(Cl)nc(Cl)n2)c(C)c1 [Compound 30, 2,4 dichloro-6-(2,4-dimethylanilino)-s-triazine] | 100% | 0 per mL × 10^3 | 0 per mL × 10^3 | 346 per mL × 10^3 | 625 g/day | 740 g/day | 887 g/day | Good | 1.9 M1 per 5 hr | 4.6 M1 per 5 hr | 4.4 M1 per 5 hr | 33 | 14.6 | 2.830 g | 150 ppm | Okay (transient drop, less than 50% at day 2) | 0 per mL × 10^3 |  |
| COc1ccc(Nc2nc(Cl)nc(Cl)n2)cc1 [Compound 5] | 100% |  |  |  |  |  |  | Poor |  |  |  | 33 |  |  | 250 ppm | Fair |  | Good |
| CSc1ccc(Nc2nc(Cl)nc(Cl)n2)cc1 [Compound 18] | 100% |  |  |  |  |  |  | Okay |  |  |  | 53 |  |  | 150 ppm | Okay (transient drop, less than 50% at day 2) |  | Fair (>2 mice sick) |
| Clc1ccc(Nc2nc(Cl)nc(Cl)n2)cc1 [Compound 2] | 100% |  |  |  |  |  |  | Good |  |  |  | 38 |  |  | 150 ppm | Fair |  | Poor (death at 840 mg/kg) |
| Cc1ccc(Nc2nc(Cl)nc(Cl)n2)cc1C [Compound 10] | 100% |  |  |  |  |  |  | Good |  |  |  | 55 |  |  | 250 ppm | Good |  | Fair (>2 mice sick) |
| Clc1nc(Cl)nc(Nc2ccc(I)cc2)n1 [Compound 11] | 84% |  |  |  |  |  |  | Okay |  |  |  | 71 |  |  | 250 ppm | Good |  | Fair (>2 mice sick) |
| Cc1ccccc1Nc1nc(Cl)nc(Cl)n1 [Compound 8] | 96% |  |  |  |  |  |  | Okay |  |  |  | 43 |  |  | 250 ppm | Okay (transient drop, less than 50% at day 2) |  | Good |
| Clc1nc(Cl)nc(Nc2cc(Cl)c(Cl)c(Cl)c2)n1 [Compound 24] | 100% |  |  |  |  |  |  | Okay |  |  |  | 67 |  |  | 150 ppm | Good |  | Good |
